Laboratory results: US9187464B2, “TRPV4 antagonists” (GlaxoSmithKline Intellectual Property (No. 2) Limited, priority 2011, dated 2015)

Target: T1, human TRPV4 (Homo sapiens, UniProt Q9HBA0)
T1 construct: expressed in transfected cells; host or cells: HEK-293-MSR-II cells transduced with 1% BacMam virus
Experiment: Ligand-gated assay (Fluo4 calcium, FLIPR; inhibition of agonist-induced activation)
Type: cell-based
Conditions: HEK-293-MSR-II cells transduced with BacMam human TRPV4; agonist at EC80
Outline: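 HEK-293-MSR-II cells BacMam-transduced with human TRPV4, loaded with 2 uM Fluo-4. Compound preincubated 10 min at room temperature in HBSS pH 7.4 plus 0.01% Chaps, then agonist added at its EC80. Inhibition of agonist-evoked calcium rise read on FLIPR; IC50 reported.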

T1 sequence (Q9HBA0 whole entry): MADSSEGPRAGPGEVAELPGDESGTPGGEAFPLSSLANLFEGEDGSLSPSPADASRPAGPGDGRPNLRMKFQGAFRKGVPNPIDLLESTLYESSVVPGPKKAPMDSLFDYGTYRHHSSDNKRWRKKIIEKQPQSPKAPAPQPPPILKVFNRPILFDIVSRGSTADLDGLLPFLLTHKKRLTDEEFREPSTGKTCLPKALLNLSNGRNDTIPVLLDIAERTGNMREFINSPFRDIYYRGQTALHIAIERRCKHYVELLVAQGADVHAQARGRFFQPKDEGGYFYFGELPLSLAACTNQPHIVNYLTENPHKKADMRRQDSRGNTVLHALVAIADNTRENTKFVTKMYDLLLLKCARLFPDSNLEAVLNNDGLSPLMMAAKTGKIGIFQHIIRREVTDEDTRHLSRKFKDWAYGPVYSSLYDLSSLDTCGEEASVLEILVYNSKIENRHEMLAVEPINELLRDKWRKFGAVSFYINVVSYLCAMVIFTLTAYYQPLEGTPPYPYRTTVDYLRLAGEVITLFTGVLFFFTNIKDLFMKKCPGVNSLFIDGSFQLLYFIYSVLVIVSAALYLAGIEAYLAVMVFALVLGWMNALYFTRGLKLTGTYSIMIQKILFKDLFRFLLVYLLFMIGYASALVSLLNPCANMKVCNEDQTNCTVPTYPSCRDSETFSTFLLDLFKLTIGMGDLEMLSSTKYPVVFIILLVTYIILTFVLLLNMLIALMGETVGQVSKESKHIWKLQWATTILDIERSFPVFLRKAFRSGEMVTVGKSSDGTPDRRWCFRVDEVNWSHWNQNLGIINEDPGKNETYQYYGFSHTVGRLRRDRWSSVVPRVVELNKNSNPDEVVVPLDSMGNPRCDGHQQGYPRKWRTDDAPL

| SMILES | IC50 [nM] |
| --- | --- |
| CC(C)(C)c1noc(C(C)(C)CN2C[C@@]3(CCC[C@H](Cn4cnc5ccc(C#N)cc54)C3)OC2=O)n1 [Example 79, 1-[((5S,7S)-3-{2-[3-(1,1-dimethylethyl)-1,2,4-oxadiazol-5-yl]-2-methylpropyl}-2-oxo-1-oxa-3-azaspiro[4.5]dec-7-yl)methyl]-1H-benzimidazole-6-carbonitrile] | 0.1 to 10 |
| COc1cc(Cl)ncc1N1C[C@@]2(CCC[C@H](Cn3cnc4ccc(C#N)cc43)C2)OC1=O [Example 123, 1-(((5S,7S)-3-(6-chloro-4-methoxypyridin-3-yl)-2-oxo-1-oxa-3-azaspiro[4.5]decan-7-yl)methyl)-1H-benzo[d]imidazole-6-carbonitrile] | 0.1 to 10 |
| Cc1cnc(N2C[C@@]3(CCC[C@](C)(Cn4cnc5ccc(C#N)cc54)C3)OC2=O)cn1 [Example 117, 1-(((5S,7S)-7-methyl-3-(5-methylpyrazin-2-yl)-2-oxo-1-oxa-3-azaspiro[4.5]decan-7-yl)methyl)-1H-benzo[d]imidazole-6-carbonitrile] | 50 to 500 |
| C[C@]1(Cn2cnc3ccc(C#N)cc32)CCC[C@@]2(CN(Cc3ccc(F)cn3)C(=O)O2)C1 [Example 159, 1-(((5S,7S)-3-((5-fluoropyridin-2-yl)methyl)-7-methyl-2-oxo-1-oxa-3-azaspiro[4.5]decan-7-yl)methyl)-1H-benzo[d]imidazole-6-carbonitrile] | 0.1 to 10 |
| N#Cc1ccc2ncn(C[C@H]3CCC[C@]4(C3)CN(Cc3cc(-c5ccc(Cl)cc5)no3)C(=O)O4)c2c1 [Example 67, 1-[((5S,7S)-3-{[3-(4-chlorophenyl)-5-isoxazolyl]methyl}-2-oxo-1-oxa-3-azaspiro[4.5]dec-7-yl)methyl]-1H-benzimidazole-6-carbonitrile] | 10 to 50 |
| CC(C)(C)c1cnc(N2C[C@@]3(CCC[C@](C)(Cn4cnc5ccc(C#N)cc54)C3)OC2=O)cn1 [Example 53, 1-(((5S,7S)-3-(5-(tert-butyl)pyrazin-2-yl)-7-methyl-2-oxo-1-oxa-3-azaspiro[4.5]decan-7-yl)methyl)-1H-benzo[d]imidazole-6-carbonitrile] | 0.1 to 10 |
| CC(C)(O)c1cnc(N2C[C@@]3(CCC[C@](C)(Cn4cnc5ccc(C#N)cc54)C3)OC2=O)cn1 [Example 147, 1-(((5S,7S)-3-(5-(2-hydroxypropan-2-yl)pyrazin-2-yl)-7-methyl-2-oxo-1-oxa-3-azaspiro[4.5]decan-7-yl)methyl)-1H-benzo[d]imidazole-6-carbonitrile] | 0.1 to 10 |
| CC(C)(CN1C[C@@]2(CCC[C@H](Cn3cnc4ccc(C#N)cc43)C2)OC1=O)c1nc(C2CCOCC2)no1 [Example 65, 1-[((5S,7S)-3-{2-methyl-2-[3-(tetrahydro-2H-pyran-4-yl)-1,2,4-oxadiazol-5-yl]propyl}-2-oxo-1-oxa-3-azaspiro[4.5]dec-7-yl)methyl]-1H-benzimidazole-6-carbonitrile] | 10 to 50 |
| COc1cc(C)cnc1N1C[C@@]2(CCC[C@](C)(Cn3cnc4ccc(C#N)cc43)C2)OC1=O [Example 127, 1-(((5S,7S)-3-(3-methoxy-5-methylpyridin-2-yl)-7-methyl-2-oxo-1-oxa-3-azaspiro[4.5]decan-7-yl)methyl)-1H-benzo[d]imidazole-6-carbonitrile] | 10 to 50 |
| CC(C)(C#N)c1cc(N2C[C@@]3(CCC[C@](C)(Cn4cnc5ccc(C#N)cc54)C3)OC2=O)on1 [Example 2] | 0.1 to 10 |
| CC(C)c1cc(N2C[C@@]3(CCC[C@](C)(Cn4cnc5ccc(C#N)cc54)C3)OC2=O)on1 [Example 30, 1-({(5S,7S)-7-methyl-3-[3-(1-methylethyl)-5-isoxazolyl]-2-oxo-1-oxa-3-azaspiro[4.5]dec-7-yl}methyl)-1H-benzimidazole-6-carbonitrile] | 10 to 50 |
| COc1cnc(N2C[C@@]3(CCC[C@](C)(Cn4cnc5ccc(C#N)cc54)C3)OC2=O)cn1 [Example 17, 1-(((7S)-3-(5-Methoxypyrazin-2-yl)-7-methyl-2-oxo-1-oxa-3-azaspiro[4.5]decan-7-yl)methyl)-1H-benzo[d]imidazole-6-carbonitrile] | 10 to 50 |
| C[C@]1(Cn2cnc3ccc(C#N)cc32)CCCC2(CN(Cc3cc(F)ccn3)C(=O)O2)C1 (stereo in doubt) [Example 158, 1-(((5S,7S)-3-((4-fluoropyridin-2-yl)methyl)-7-methyl-2-oxo-1-oxa-3-azaspiro[4.5]decan-7-yl)methyl)-1H-benzo[d]imidazole-6-carbonitrile] | 0.1 to 10 |
| COc1cc(C)c(N2C[C@@]3(CCC[C@H](Cn4cnc5ccc(C#N)cc54)C3)OC2=O)cn1 [Example 111, 1-({(5S,7S)-3-[4-methyl-6-(methyloxy)-3-pyridinyl]-2-oxo-1-oxa-3-azaspiro[4.5]dec-7-yl}methyl)-1H-benzimidazole-6-carbonitrile] | 10 to 50 |
| N#Cc1ccc2ncn(C[C@H]3CCC[C@]4(C3)CN(Cc3csc5ccc(Cl)cc35)C(=O)O4)c2c1 [Example 27, 1-({(5S,7S)-3-[(5-Chloro-1-benzothien-3-yl)methyl]-2-oxo-1-oxa-3-azaspiro[4.5]dec-7-yl}methyl)-1H-benzimidazole-6-carbonitrile] | 0.1 to 10 |
| N#Cc1ccc2ncn(C[C@H]3CCC[C@]4(C3)CN(Cc3cn(-c5cc(F)cc(F)c5)nn3)C(=O)O4)c2c1 [Example 101, 1-[((5S,7S)-3-{[1-(3,5-difluorophenyl)-1H-1,2,3-triazol-4-yl]methyl}-2-oxo-1-oxa-3-azaspiro[4.5]dec-7-yl)methyl]-1H-benzimidazole-6-carbonitrile] | 10 to 50 |
| CCOc1cc(C)c(N2C[C@@]3(CCC[C@H](Cn4cnc5cc(F)c(C#N)cc54)C3)OC2=O)cn1 [Example 125, 1-(((5S,7S)-3-(6-ethoxy-4-methylpyridin-3-yl)-2-oxo-1-oxa-3-azaspiro[4.5]decan-7-yl)methyl)-5-fluoro-1H-benzo[d]imidazole-6-carbonitrile] | 0.1 to 10 |
| N#Cc1ccc2ncn(C[C@H]3CCC[C@]4(C3)CN(Cc3csc5ncccc35)C(=O)O4)c2c1 [Example 151, 1-{[(5S,7S)-2-oxo-3-(thieno[2,3-b]pyridin-3-ylmethyl)-1-oxa-3-azaspiro[4.5]dec-7-yl]methyl}-1H-benzimidazole-6-carbonitrile] | 50 to 500 |
| CC(C)(C)n1ncc(N2C[C@@]3(CCC[C@](C)(Cn4cnc5ccc(C#N)cc54)C3)OC2=O)n1 [Example 50, 1-(((5S,7S)-3-(2-(tert-butyl)-2H-1,2,3-triazol-4-yl)-7-methyl-2-oxo-1-oxa-3-azaspiro[4.5]decan-7-yl)methyl)-1H-benzo[d]imidazole-6-carbonitrile] | 0.1 to 10 |
| CCOc1cnc(N2C[C@@]3(CCC[C@](C)(Cn4cnc5ccc(C#N)cc54)C3)OC2=O)cn1 [Example 14, 1-(((5S,7S)-3-(5-Ethoxypyrazin-2-yl)-7-methyl-2-oxo-1-oxa-3-azaspiro[4.5]decan-7-yl)methyl)-1H-benzo[d]imidazole-6-carbonitrile] | 0.1 to 10 |
| N#Cc1ccc2ncn(C[C@H]3CCC[C@]4(C3)CN(Cc3nnc(-c5ccccc5)[nH]3)C(=O)O4)c2c1 [Example 71, 1-({(5S,7S)-2-oxo-3-[(3-phenyl-1H-1,2,4-triazol-5-yl)methyl]-1-oxa-3-azaspiro[4.5]dec-7-yl}methyl)-1H-benzimidazole-6-carbonitrile] | 50 to 500 |
